Measurements taken from patent US20260176320A1, “MODULATORS OF G-PROTEIN COUPLED RECEPTORS” (priority 2018, published 2026).
Read-outs that look alike come from different tables or passages of the source. Square brackets hold non-standard residues; d marks the D form. Peptide text beside a SMILES is read from it. * marks the point of attachment. X1 = O=C(CSCC(=O)*)NCCN1C(=O)c2ccccc2C1=O; Aib = CC(C)(N)C(=O)O

Columns and labels:
Format in all cases: cell-based
[1] = target: T1, GLP-1R (Homo sapiens, UniProt P43220); test: HitHunter cAMP assay (GLP-1R); details: cAMP; for Emax: read-out: (Emax) GLP-1R; for EC50: read-out: EC50 GLP-1R/nM
T1 sequence (P43220 24-463): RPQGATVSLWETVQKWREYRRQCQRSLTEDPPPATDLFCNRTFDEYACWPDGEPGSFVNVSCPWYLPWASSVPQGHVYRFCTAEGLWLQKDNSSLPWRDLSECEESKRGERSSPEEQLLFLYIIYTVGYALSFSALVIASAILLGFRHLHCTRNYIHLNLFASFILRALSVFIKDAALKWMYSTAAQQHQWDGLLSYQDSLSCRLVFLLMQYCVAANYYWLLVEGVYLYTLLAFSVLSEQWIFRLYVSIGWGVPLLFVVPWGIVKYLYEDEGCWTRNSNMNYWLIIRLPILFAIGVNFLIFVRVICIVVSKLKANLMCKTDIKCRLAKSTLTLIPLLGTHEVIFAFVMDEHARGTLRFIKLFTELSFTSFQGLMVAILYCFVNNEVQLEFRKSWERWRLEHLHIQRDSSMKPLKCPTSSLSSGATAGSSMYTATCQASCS
Procedure, shortened: (§1)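 Suspension cells expressing each receptor (10,000 per well) in HBSS with 10 mM HEPES, 625 μM IBMX and 0.2% BSA were treated with a 22-point 2-fold agonist series in duplicate for 30 minutes at room temperature. cAMP was detected by antibody immunocompetition with luminescence read after overnight incubation.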

[2] = target: T1, GLP-1R; test: PathHunter β-arrestin assay
Experimental: The effects of the chemical entities described herein on β-arrestin signaling and associated downstream processes (e.g., those delineated above) can be assessed using conventional methods, e.g., PathHunter β-arrestin Assay for determining β-arresting coupling (see Examples section). […] It has been shown that b-arrestin coupling is a key strep in receptor internalization and subsequent de-sensitization and attenuation of signaling.
5,000 cells were seeded in appropriate cell culture media per well in a low volume 384-well tissue culture plate. The assay plate was incubated with cells overnight at 37° C. and 5% CO2. The media was removed, and 5 μL of appropriate cell culture media containing 0.2% BSA was added. Agonist serial dilutions in a separate 384 well dilution plate in a 22-point series of 2× dilutions of agonist in DMSO were performed as follows. 80 μL of the highest concentration of Agonist/DMSO was added to well No. 1. 40 μL was removed from well No. 1, and added to well No. 2, followed by gentle mixing. […] This process was repeated until well No. 22. Additional serial dilutions for additional agonists were set up in a similar manner. 100 nL of each 2× agonist serial dilution was added in duplicate to the designated agonist rows of the assay plate using the Labcyte ECHO. Assay plate was incubated for 90 minutes at 37° C. and 5% CO2. A stock of Working Detection Solution in a separate 15 ml polypropylene tube was prepared by mixing 19 parts of Cell Assay Buffer, 5 parts of Substrate Reagent 1, 1 part Substrate Reagent 2. […] Plates were spun down briefly. Assay plate was incubated for 3 hour at room temperature in the dark for the immunocompetition reaction to occur. Samples were read on Tecan i-control plate reader using luminescence mode with 100 ms integration time. Data analysis was performed using GraphPad Prism.

[3] = target: T2, GIP-R (Homo sapiens, UniProt P48546); test: HitHunter cAMP assay (GIP-R); details: cAMP; for Emax: read-out: (Emax) GIP-R; for EC50: read-out: EC50 GIP-R/nM
T2 sequence (P48546 22-466): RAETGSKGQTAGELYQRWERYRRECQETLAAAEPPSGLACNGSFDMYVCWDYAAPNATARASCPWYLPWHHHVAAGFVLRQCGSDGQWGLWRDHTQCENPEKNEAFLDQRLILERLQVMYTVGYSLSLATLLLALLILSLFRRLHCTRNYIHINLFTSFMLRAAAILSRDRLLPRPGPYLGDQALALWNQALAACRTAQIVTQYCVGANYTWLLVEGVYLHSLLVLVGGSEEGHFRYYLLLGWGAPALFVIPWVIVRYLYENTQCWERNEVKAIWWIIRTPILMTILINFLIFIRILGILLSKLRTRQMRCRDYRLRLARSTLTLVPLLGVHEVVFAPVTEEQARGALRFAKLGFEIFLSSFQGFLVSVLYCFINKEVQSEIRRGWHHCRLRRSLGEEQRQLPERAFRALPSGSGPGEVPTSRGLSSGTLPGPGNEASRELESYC
Procedure, shortened: as §1

[4] = PathHunter β-arrestin assay, read-out: β-arrestin activity EC50

| SMILES | Emax ([1]; Table 3) | EC50 ([1]; Table 3) | Emax ([1]; Table 3A) | EC50 ([1]; Table 3A) | EC50 [2, 4] | Emax ([3]; Table 3) | EC50 ([3]; Table 3) | Emax ([3]; Table 3A) | EC50 ([3]; Table 3A) | EC50 [2] |
| --- | --- | --- | --- | --- | --- | --- | --- | --- | --- | --- |
| CCCCCCCCCCCCCCCC(=O)N[C@@H](CCC(=O)NCCCC[C@H](NC(=O)[C@H](CO)NC(=O)[C@@H]1CCCN1C(=O)[C@@H]1CCCN1C(=O)[C@@H]1CCCN1C(=O)[C@H](C)NC(=O)CNC(=O)[C@H](CO)NC(=O)[C@H](CO)NC(=O)[C@@H]1CCCN1C(=O)CNC(=O)CNC(=O)[C@H](C)NC(=O)[C@H](CC(C)C)NC(=O)[C@H](CC(C)C)NC(=O)[C@H](Cc1c[nH]c2ccccc12)NC(=O)[C@H](CC(N)=O)NC(=O)[C@@H](NC(=O)[C@H](Cc1ccccc1)NC(=O)[C@H](CCC(=O)O)NC(=O)C(C)(C)NC(=O)[C@H](C)NC(=O)[C@H](C)NC(=O)[C@H](CCC(N)=O)NC(=O)[C@H](CCCCN)NC(=O)[C@H](CC(=O)O)NC(=O)[C@H](CC(C)C)NC(=O)[C@H](Cc1ccc(O)cc1)NC(=O)[C@@H](NC(=O)[C@H](CO)NC(=O)[C@H](Cc1ccc(O)cc1)NC(=O)[C@H](CC(=O)O)NC(=O)[C@H](CO)NC(=O)[C@@H](NC(=O)[C@H](Cc1ccccc1)NC(=O)[C@@H](NC(=O)CNC(=O)[C@H](CCC(=O)O)NC(=O)CC(C)(C)NC(=O)CCN1CCCCC1=O)[C@@H](C)O)[C@@H](C)O)[C@@H](C)CC)C(C)C)C(N)=O)C(=O)O [Compound 3] | 96% | 0.1 to 1 nM | 96% | 0.1 to 1 nM | > 1000 nM | – | – | – | – | – |
| CCCCCCCCCCCCCCCC(=O)N[C@@H](CCC(=O)NCCCC[C@H](NC(=O)[C@H](CO)NC(=O)[C@@H]1CCCN1C(=O)[C@@H]1CCCN1C(=O)[C@@H]1CCCN1C(=O)[C@H](C)NC(=O)CNC(=O)[C@H](CO)NC(=O)[C@H](CO)NC(=O)[C@@H]1CCCN1C(=O)CNC(=O)CNC(=O)[C@H](C)NC(=O)[C@H](CC(C)C)NC(=O)[C@H](CC(C)C)NC(=O)[C@H](Cc1c[nH]c2ccccc12)NC(=O)[C@H](CC(N)=O)NC(=O)[C@@H](NC(=O)[C@H](Cc1ccccc1)NC(=O)[C@H](CCC(=O)O)NC(=O)C(C)(C)NC(=O)[C@H](C)NC(=O)[C@H](C)NC(=O)[C@H](CCC(N)=O)NC(=O)[C@H](CCCCN)NC(=O)[C@H](CC(=O)O)NC(=O)[C@H](CC(C)C)NC(=O)[C@H](Cc1ccc(O)cc1)NC(=O)[C@@H](NC(=O)[C@H](CO)NC(=O)[C@H](Cc1ccc(O)cc1)NC(=O)[C@H](CC(=O)O)NC(=O)[C@H](CO)NC(=O)[C@@H](NC(=O)[C@H](Cc1ccccc1)NC(=O)[C@@H](NC(=O)CNC(=O)[C@H](CCC(=O)O)NC(=O)C(C)(C)CNC(=O)CCN1CCCCC1=O)[C@@H](C)O)[C@@H](C)O)[C@@H](C)CC)C(C)C)C(N)=O)C(=O)O [Compound 4] | 100% | 0.1 to 1 nM | 100% | < 0.1 nM | 10 to 1000 nM | 23% | 1 to 10 nM | 23% | 10 to 100 nM | – |
| CCCCCCCCCCCCCCCC(=O)N[C@@H](CCC(=O)NCCCC[C@H](NC(=O)[C@H](CO)NC(=O)[C@@H]1CCCN1C(=O)[C@@H]1CCCN1C(=O)[C@@H]1CCCN1C(=O)[C@H](C)NC(=O)CNC(=O)[C@H](CO)NC(=O)[C@H](CO)NC(=O)[C@@H]1CCCN1C(=O)CNC(=O)CNC(=O)[C@H](C)NC(=O)[C@H](CC(C)C)NC(=O)[C@H](CC(C)C)NC(=O)[C@H](Cc1c[nH]c2ccccc12)NC(=O)[C@H](CC(N)=O)NC(=O)[C@@H](NC(=O)[C@H](Cc1ccccc1)NC(=O)[C@H](CCC(=O)O)NC(=O)C(C)(C)NC(=O)[C@H](C)NC(=O)[C@H](C)NC(=O)[C@H](CCC(N)=O)NC(=O)[C@H](CCCCN)NC(=O)[C@H](CC(=O)O)NC(=O)[C@H](CC(C)C)NC(=O)[C@H](Cc1ccc(O)cc1)NC(=O)[C@@H](NC(=O)[C@H](CO)NC(=O)[C@H](Cc1ccc(O)cc1)NC(=O)[C@H](CC(=O)O)NC(=O)[C@H](CO)NC(=O)[C@@H](NC(=O)[C@H](Cc1ccccc1)NC(=O)[C@@H](NC(=O)CNC(=O)[C@H](CCC(=O)O)NC(=O)CSCC(=O)NCCN1CCCOC1=O)[C@@H](C)O)[C@@H](C)O)[C@@H](C)CC)C(C)C)C(N)=O)C(=O)O [Compound 6] | 95% | 0.1 to 1 nM | 95% | 0.1 to 1 nM | > 1000 nM | 75% | 1 to 10 nM | 75% | 1 to 10 nM | – |
| CC[C@H](C)[C@H](NC(=O)[C@H](CO)NC(=O)[C@H](Cc1ccc(O)cc1)NC(=O)[C@H](CC(=O)O)NC(=O)[C@H](CO)NC(=O)[C@@H](NC(=O)[C@H](Cc1ccccc1)NC(=O)[C@@H](NC(=O)CNC(=O)[C@H](CCC(=O)O)NC(=O)CSCC(=O)NCCN1C(=O)c2ccccc2C1=O)[C@@H](C)O)[C@@H](C)O)C(=O)N[C@@H](Cc1ccc(O)cc1)C(=O)N[C@@H](CC(C)C)C(=O)N[C@@H](CC(=O)O)C(=O)N[C@@H](CCCCN)C(=O)N[C@@H](CCC(N)=O)C(=O)N[C@@H](C)C(=O)N[C@@H](C)C(=O)NC(C)(C)C(=O)N[C@@H](CCC(=O)O)C(=O)N[C@@H](Cc1ccccc1)C(=O)N[C@H](C(=O)N[C@@H](CCC(=O)O)C(=O)N[C@@H](Cc1c[nH]c2ccccc12)C(=O)N[C@@H](CC(C)C)C(=O)N[C@@H](CC(C)C)C(=O)N[C@@H](C)C(=O)NCC(=O)NCC(=O)N1CCC[C@H]1C(=O)N[C@@H](CO)C(=O)N[C@@H](CO)C(=O)NCC(=O)N[C@@H](C)C(=O)N1CCC[C@H]1C(=O)N1CCC[C@H]1C(=O)N1CCC[C@H]1C(=O)N[C@@H](CO)C(=O)N[C@@H](CCCCN)C(N)=O)C(C)C [compound 149] (X1-EGTFTSDYSIYLDKQAA[Aib]EFVEWLLAGGPSSGAPPPSK-NH2) | – | – | – | – | – | – | – | – | – | > 1000 nM |
| CC[C@H](C)[C@H](NC(=O)[C@H](CO)NC(=O)[C@H](Cc1ccc(O)cc1)NC(=O)[C@H](CC(=O)O)NC(=O)[C@H](CO)NC(=O)[C@@H](NC(=O)[C@H](Cc1ccccc1)NC(=O)[C@@H](NC(=O)CNC(=O)[C@H](CCC(=O)O)NC(=O)CSCC(=O)NCCN1C(=O)c2ccccc2C1=O)[C@@H](C)O)[C@@H](C)O)C(=O)N[C@@H](Cc1ccc(O)cc1)C(=O)N[C@@H](CC(C)C)C(=O)N[C@@H](CC(=O)O)C(=O)N[C@@H](CCC(=O)O)C(=O)N[C@@H](CCC(N)=O)C(=O)N[C@@H](C)C(=O)N[C@@H](C)C(=O)NC(C)(C)C(=O)N[C@@H](CCC(=O)O)C(=O)N[C@@H](Cc1ccccc1)C(=O)N[C@H](C(=O)N[C@@H](CC(N)=O)C(=O)N[C@@H](Cc1c[nH]c2ccccc12)C(=O)N[C@@H](CC(C)C)C(=O)N[C@@H](CC(C)C)C(=O)N[C@@H](C)C(=O)NCC(=O)NCC(=O)N1CCC[C@H]1C(=O)N[C@@H](CO)C(=O)N[C@@H](CO)C(=O)NCC(=O)N[C@@H](C)C(=O)N1CCC[C@H]1C(=O)N1CCC[C@H]1C(=O)N1CCC[C@H]1C(=O)N[C@@H](CO)C(=O)N[C@@H](CCCCN)C(N)=O)C(C)C [compound 150] (X1-EGTFTSDYSIYLDEQAA[Aib]EFVNWLLAGGPSSGAPPPSK-NH2) | – | – | – | – | – | 118 to 130% | – | – | – | > 1000 nM |
